# Values joined by “and” are separate entries in the source; they are usually repeats but may differ in a detail not shown here. Identical values can stand only once. Inconclusive results and toxic doses are left out.
# Test system: CD2F1 mice, L1210 leukemia ip, survival T/C
# Test: NCI In Vivo Anticancer Drug Screen. Data for tumor model L1210 Leukemia (intraperitoneal) in CD2F1 (CDF1) mice
# Conditions: higher = longer survival
# Procedure, shortened: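 Ratio T/C, where T is the treated-group value and C the vehicle-dosed control value, from mice implanted with a transplantable tumor.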
# [1] = endpoint: mean survival time, dose: 25.0 mg/kg/injection, schedule: Q04DX002 (ip), vehicle: saline with Tween-80
# [2] = endpoint: mean survival time, dose: 100.0 mg/kg/injection, schedule: Q04DX002 (ip), vehicle: saline with Tween-80
# [3] = endpoint: mean survival time, dose: 50.0 mg/kg/injection, schedule: Q01DX001 (ip), vehicle: saline with Tween-80
# [4] = endpoint: mean survival time, dose: 100.0 mg/kg/injection, schedule: Q01DX001 (ip), vehicle: saline with Tween-80
# [5] = endpoint: mean survival time, dose: 100.0 mg/kg/injection, schedule: Q01DX009 (ip), vehicle: saline with Tween-80
# [6] = endpoint: mean survival time, dose: 100.0 mg/kg/injection, schedule: Q04DX003 (ip), vehicle: saline with Tween-80
# [7] = endpoint: mean survival time, dose: 200.0 mg/kg/injection, schedule: Q01DX001 (ip), vehicle: saline with Tween-80
# [8] = endpoint: mean survival time, dose: 200.0 mg/kg/injection, schedule: Q01DX009 (ip), vehicle: saline with Tween-80
# [9] = endpoint: mean survival time, dose: 200.0 mg/kg/injection, schedule: Q04DX003 (ip), vehicle: saline with Tween-80
# [10] = endpoint: mean survival time, dose: 100.0 mg/kg/injection, schedule: Q01DX001 (ip), vehicle: saline
# [11] = endpoint: mean survival time, dose: 400.0 mg/kg/injection, schedule: Q04DX003 (ip), vehicle: saline with Tween-80
# [12] = endpoint: mean survival time, dose: 400.0 mg/kg/injection, schedule: Q01DX009 (ip), vehicle: saline with Tween-80
smiles,measurement,setting,value
O=NN(CCCl)C(=O)Nc1ccc2c(c1)OCO2,T/C,"endpoint: mean survival time, dose: 44.0 mg/kg/injection, schedule: Q01DX001 (ip), vehicle: other",156 % of control
same,T/C,"endpoint: mean survival time, dose: 66.0 mg/kg/injection, schedule: Q01DX001 (ip), vehicle: other",216 % of control
same,T/C,"endpoint: mean survival time, dose: 100.0 mg/kg/injection, schedule: Q01DX001 (ip), vehicle: other",277 % of control
same,T/C,"endpoint: mean survival time, dose: 150.0 mg/kg/injection, schedule: Q01DX001 (ip), vehicle: other",171 % of control
O=C1Cc2cc3c(cc2C=C2CCCN12)OCO3,T/C,"endpoint: mean survival time, dose: 25.0 mg/kg/injection, schedule: Q01DX009 (ip), vehicle: water",103 % of control
same,T/C,"endpoint: mean survival time, dose: 50.0 mg/kg/injection, schedule: Q01DX009 (ip), vehicle: water",97 % of control
same,T/C,"endpoint: mean survival time, dose: 100.0 mg/kg/injection, schedule: Q01DX009 (ip), vehicle: water",103 % of control
same,T/C,"endpoint: mean survival time, dose: 400.0 mg/kg/injection, schedule: Q01DX009 (ip), vehicle: water",113 % of control
CC(=O)Oc1cc2c(OC(C)=O)c(-c3c(C)cc4c(C(C)C)c(OC(C)=O)c(OC(C)=O)cc4c3OC(C)=O)c(C)cc2c(C(C)C)c1OC(C)=O,T/C,[1],100 % of control
same,T/C,"endpoint: mean survival time, dose: 50.0 mg/kg/injection, schedule: Q04DX002 (ip), vehicle: saline with Tween-80",96 % of control
same,T/C,[2],89 % of control
O=S(=O)(c1ccc(NC(=S)N/N=C/c2ccccc2O)cc1)N1CCCCC1,T/C,"endpoint: mean survival time, dose: 12.5 mg/kg/injection, schedule: Q01DX009 (ip), vehicle: olive oil, sesame oil, peanut oil",98 % of control
same,T/C,"endpoint: mean survival time, dose: 25.0 mg/kg/injection, schedule: Q01DX009 (ip), vehicle: olive oil, sesame oil, peanut oil",94 % of control
same,T/C,"endpoint: mean survival time, dose: 50.0 mg/kg/injection, schedule: Q01DX009 (ip), vehicle: olive oil, sesame oil, peanut oil",102 % of control
same,T/C,"endpoint: mean survival time, dose: 100.0 mg/kg/injection, schedule: Q01DX009 (ip), vehicle: olive oil, sesame oil, peanut oil",104 % of control
same,T/C,"endpoint: mean survival time, dose: 200.0 mg/kg/injection, schedule: Q01DX009 (ip), vehicle: olive oil, sesame oil, peanut oil",94 % of control
same,T/C,"endpoint: mean survival time, dose: 400.0 mg/kg/injection, schedule: Q01DX009 (ip), vehicle: olive oil, sesame oil, peanut oil",96 % of control
O=C(COc1ccccc1)NC(=S)Nc1ccc(Cl)c(Cl)c1,T/C,[1],97 % of control and 105 % of control
same,T/C,[3],101 % of control
same,T/C,"endpoint: mean survival time, dose: 50.0 mg/kg/injection, schedule: Q01DX009 (ip), vehicle: saline with Tween-80",98 % of control and 102 % of control
same,T/C,"endpoint: mean survival time, dose: 50.0 mg/kg/injection, schedule: Q04DX003 (ip), vehicle: saline with Tween-80",98 % of control
same,T/C,[4],101 % of control
same,T/C,[5],98 % of control and 106 % of control
same,T/C,[6],96 % of control
same,T/C,[7],95 % of control
same,T/C,[8],93 % of control and 96 % of control
same,T/C,[9],98 % of control
COc1cc([N+](=O)[O-])c2nc(/C=N/NC(N)=S)ccc2c1,T/C,[10],89 % of control
CC1(C)C2CCC1(CS(=O)(=O)O)C(=O)C2Br.[Ag] (configuration not stated),T/C,"endpoint: mean survival time, dose: 100.0 mg/kg/injection, schedule: Q04DX003 (ip), vehicle: acetone",96 % of control
COC1=c2\cccc\c2=N\C(OC)=c2\cccc\c2=N\1,T/C,[6],101 % of control
same,T/C,[9],101 % of control
same,T/C,[11],98 % of control
S=c1nc[nH]c2ccccc12,T/C,[4],93 % of control
same,T/C,[2],91 % of control and 105 % of control
same,T/C,[6],95 % of control and 97 % of control
same,T/C,[7],94 % of control
same,T/C,"endpoint: mean survival time, dose: 200.0 mg/kg/injection, schedule: Q04DX002 (ip), vehicle: saline with Tween-80",94 % of control and 102 % of control
same,T/C,[9],86 % of control and 90 % of control
same,T/C,"endpoint: mean survival time, dose: 400.0 mg/kg/injection, schedule: Q01DX001 (ip), vehicle: saline with Tween-80",88 % of control
same,T/C,"endpoint: mean survival time, dose: 400.0 mg/kg/injection, schedule: Q04DX002 (ip), vehicle: saline with Tween-80",91 % of control and 98 % of control
CC1(C)SC(C(NC(=O)COc2ccccc2)C(=O)O)NC1C(=O)O (configuration not stated),T/C,[6],97 % of control
same,T/C,[9],97 % of control
Cc1ncc(CO)c(C2NOCc3ccc(Cl)cc32)c1O (configuration not stated),T/C,"endpoint: mean survival time, dose: 25.0 mg/kg/injection, schedule: Q01DX009 (ip), vehicle: Klucel (hydroxypropylcellulose) (HPC)",96 % of control
same,T/C,"endpoint: mean survival time, dose: 50.0 mg/kg/injection, schedule: Q01DX009 (ip), vehicle: Klucel (hydroxypropylcellulose) (HPC)",98 % of control
C=C(C)CSC(=S)NNc1ccccc1,T/C,"endpoint: mean survival time, dose: 25.0 mg/kg/injection, schedule: Q01DX009 (ip), vehicle: acetone",93 % of control
same,T/C,"endpoint: mean survival time, dose: 50.0 mg/kg/injection, schedule: Q01DX009 (ip), vehicle: acetone",96 % of control
same,T/C,"endpoint: mean survival time, dose: 100.0 mg/kg/injection, schedule: Q01DX009 (ip), vehicle: acetone",102 % of control
c1ccc(C2=NN(c3ccccc3)CN(c3ccccc3)N2)cc1,T/C,[5],106 % of control
same,T/C,[8],97 % of control
same,T/C,[12],96 % of control
OCCN(CCO)N=Nc1c(F)cc(F)cc1F,T/C,"endpoint: mean survival time, dose: 25.0 mg/kg/injection, schedule: Q01DX005 (ip), vehicle: other",98 % of control
same,T/C,"endpoint: mean survival time, dose: 25.0 mg/kg/injection, schedule: Q04DX003 (ip), vehicle: water",94 % of control
same,T/C,"endpoint: mean survival time, dose: 50.0 mg/kg/injection, schedule: Q01DX005 (ip), vehicle: other",101 % of control
same,T/C,"endpoint: mean survival time, dose: 50.0 mg/kg/injection, schedule: Q04DX003 (ip), vehicle: water",94 % of control
same,T/C,"endpoint: mean survival time, dose: 100.0 mg/kg/injection, schedule: Q01DX005 (ip), vehicle: other",101 % of control
same,T/C,"endpoint: mean survival time, dose: 100.0 mg/kg/injection, schedule: Q04DX003 (ip), vehicle: water",97 % of control
same,T/C,"endpoint: mean survival time, dose: 200.0 mg/kg/injection, schedule: Q01DX005 (ip), vehicle: other",102 % of control
same,T/C,"endpoint: mean survival time, dose: 200.0 mg/kg/injection, schedule: Q04DX003 (ip), vehicle: water",97 % of control
same,T/C,"endpoint: mean survival time, dose: 400.0 mg/kg/injection, schedule: Q01DX005 (ip), vehicle: other",112 % of control
same,T/C,"endpoint: mean survival time, dose: 400.0 mg/kg/injection, schedule: Q04DX003 (ip), vehicle: water",100 % of control
COc1ccc(OC)c(NC(=O)Oc2ccc(C(=O)OCc3ccccc3)cc2)c1,T/C,[5],101 % of control
same,T/C,[8],104 % of control
same,T/C,[12],104 % of control
CN(C)C(=O)OCC#CCOC(=O)N(C)C,T/C,"endpoint: mean survival time, dose: 100.0 mg/kg/injection, schedule: Q04DX002 (ip), vehicle: saline",101 % of control
same,T/C,"endpoint: mean survival time, dose: 200.0 mg/kg/injection, schedule: Q04DX002 (ip), vehicle: saline",86 % of control
F/C(=C\c1ccccc1)c1ccccc1,T/C,[3],110 % of control
same,T/C,[4],108 % of control
same,T/C,[7],101 % of control
Nc1ccn(C2OC(CO)C(OP(=O)(O)O)C2O)c(=O)n1 (configuration not stated),T/C,"endpoint: mean survival time, dose: 4.4 mg/kg/injection, schedule: Q03HX024 (ip), vehicle: saline",229 % of control
same,T/C,"endpoint: mean survival time, dose: 8.7 mg/kg/injection, schedule: Q03HX024 (ip), vehicle: saline",252 % of control
same,T/C,"endpoint: mean survival time, dose: 17.4 mg/kg/injection, schedule: Q03HX024 (ip), vehicle: saline",296 % of control
same,T/C,"endpoint: mean survival time, dose: 34.8 mg/kg/injection, schedule: Q03HX024 (ip), vehicle: saline",111 % of control
same,T/C,"endpoint: mean survival time, dose: 200.0 mg/kg/injection, schedule: Q01DX009 (oral), vehicle: saline",159 % of control
same,T/C,"endpoint: mean survival time, dose: 400.0 mg/kg/injection, schedule: Q01DX009 (oral), vehicle: saline",175 % of control
CC1(C)CC(=O)c2cc([C@@H]3OC[C@@H](O)[C@H]3O)[nH]c2C1,T/C,"endpoint: median survival time, dose: 12.5 mg/kg/injection, schedule: Q01DX005 (ip), vehicle: water",101 % of control
same,T/C,"endpoint: median survival time, dose: 25.0 mg/kg/injection, schedule: Q01DX005 (ip), vehicle: water",101 % of control
same,T/C,"endpoint: median survival time, dose: 50.0 mg/kg/injection, schedule: Q01DX005 (ip), vehicle: water",101 % of control
same,T/C,"endpoint: median survival time, dose: 100.0 mg/kg/injection, schedule: Q01DX005 (ip), vehicle: water",94 % of control
same,T/C,"endpoint: median survival time, dose: 200.0 mg/kg/injection, schedule: Q01DX005 (ip), vehicle: water",96 % of control
C[N+]([O-])(CCO)Cc1ccccc1 (configuration not stated),T/C,"endpoint: mean survival time, dose: 50.0 mg/kg/injection, schedule: Q01DX001 (ip), vehicle: carboxymethylcellulose (CMC)",102 % of control
same,T/C,"endpoint: mean survival time, dose: 100.0 mg/kg/injection, schedule: Q01DX001 (ip), vehicle: carboxymethylcellulose (CMC)",112 % of control
same,T/C,"endpoint: mean survival time, dose: 200.0 mg/kg/injection, schedule: Q01DX001 (ip), vehicle: carboxymethylcellulose (CMC)",112 % of control
same,T/C,"endpoint: mean survival time, dose: 400.0 mg/kg/injection, schedule: Q01DX001 (ip), vehicle: carboxymethylcellulose (CMC)",112 % of control
CC(=O)NC(C)NC(C)=O,T/C,[10],103 % of control
same,T/C,"endpoint: mean survival time, dose: 200.0 mg/kg/injection, schedule: Q01DX001 (ip), vehicle: saline",103 % of control
same,T/C,"endpoint: mean survival time, dose: 400.0 mg/kg/injection, schedule: Q01DX001 (ip), vehicle: saline",103 % of control
CCc1cccc(OS(=O)(=O)c2cccc([N+](=O)[O-])c2)c1,T/C,[5],98 % of control
same,T/C,[6],103 % of control
same,T/C,[8],102 % of control
same,T/C,[9],103 % of control
same,T/C,[12],93 % of control
same,T/C,[11],101 % of control
